Measurements from patent US20160213742A1, “COMPOSITIONS AND METHODS FOR THE TREATMENT OF FUNGAL INFECTIONS” (priority 2013, published 2016).
≈ marks a conversion by molar mass, not a printed value. Where two headings read alike, the source gives them in different places.

Experiments:
Format in all cases: cell-based
[1] = test system: Neutrophils purified from human peripheral blood; test: Human Neutrophil Transwell Migration Assay; settings: 37° C., 45 minutes, % of the maximum migration possible
Excerpt: Neutrophils were purified from human peripheral blood utilizing PolymorphPrep. Red blood cells were lysed with a lysis buffer and the cells were washed, counted and resuspended in assay buffer. Neutrophils (approximately 50,000 to 100,000 in number) were placed over 5-micon pore sized transwell plates in 24-well format with test compounds in the bottom chamber of each well. A negative control of media alone in the bottom chamber was set up in triplicate. A positive control where the neutrophils were added directly to the bottom well was set up in triplicate.
The plates were incubated at 37° C. for 45 minutes to allow for migration. After this time, migration was confirmed visually and then an aliquot (⅙^th of total cells) from each well was taken for ATP detection via luminescence with ATPlite (PerkinElmer) to quantify the number of migrated cells. The averaged reading for random migration detected in the negative control was subtracted from all readings to obtain the corrected migration number. These numbers were then divided by the averaged reading from the positive control to get the % Neutrophil Migration of the maximum migration possible.

C. glabrata ATCC 90030 = test: microbe, parasite or virus in culture
Protocol: (§1) The test organisms consisted of strains from the Micromyx collection. Reference isolates were originally received from the American Type Culture Collection (ATCC; Manassas, Va.). Organisms received at Micromyx were initially streaked for isolation on Sabouraud dextrose or potato dextrose agar. Colonies were picked by swab from the medium and resuspended in the appropriate broth containing cryoprotectant. The suspensions were aliquoted into cryogenic vials and maintained at −80° C. Prior to testing, Candida isolates were streaked from the frozen vials on Sabouraud dextrose agar. The yeast isolates were incubated at overnight at 35° C. before use. The fungal isolates were incubated at least 7 days on Sabouraud dextrose agar slants at 35° C. before harvesting.
(§2) Isolates were tested in RPMI medium (Catalog No. SH30011.04; Lot No. AWA92121B; HyClone Labs, Logan, Utah) which was prepared according to CLSI guidelines. The pH of the medium was adjusted to 7.0 with 1 N NaOH. The medium was sterile filtered using a 0.2 μm PES filter and stored at 4° C. until used.
(§3) The MIC assay method employed automated liquid handlers to conduct serial dilutions and liquid transfers. Automated liquid handlers included the Multidrop 384 (Labsystems, Helsinki, Finland), Biomek 2000 and Biomek FX (Beckman Coulter, Fullerton Calif.). The wells in columns 2-12 in standard 96-well microdilution plates (Costar 3795) were filled with 150 μl of the correct diluent (50% DMSO for investigational compounds, 100% DMSO for comparator compounds). These would become the mother plates' from which ‘daughter’ or test plates would be prepared. Stocks were diluted to 40× the desired top concentration in the test plates in the indicated solvent, and 300 μL of the 40× stock was dispensed into the appropriate well in Column 1 of the mother plates. The Biomek 2000 was used to make serial serial 2-fold dilutions through Column 11 in the “mother plate”. The wells of Column 12 contained no drug and served as the organism growth control wells.
(§4) The daughter plates were loaded with 185 μL per well of RPMI described above using the Multidrop 384. The daughter plates were prepared using the Biomek FX which transferred 5 μL of drug solution from each well of a mother plate to the corresponding well of the daughter plate in a single step.
(§5) A standardized inoculum of each organism was prepared. For Candida, colonies were picked from the streak plate and a suspension was prepared in RPMI medium equal to a 0.5 McFarland standard, then diluted 1:100 in RPMI and transferred to compartments of sterile reservoirs divided by length (Beckman Coulter). For the Aspergillus isolates, previously prepared and quantitated suspensions were used to make dilutions in RPMI to reach 20× the final concentration. These dilutions were also transferred to compartments of sterile reservoirs divided by length (Beckman Coulter). The final concentration of the Aspergillus isolates was approximately 0.2-2.5×10^4 CFU/mL.
(§6) The Biomek 2000 was used to inoculate the plates. Daughter plates were placed on the Biomek 2000 work surface reversed so that inoculation took place from low to high drug concentration. The Biomek 2000 delivered 10 μL of standardized inoculum into each well. Thus, the wells of the daughter plates ultimately contained 185 μL of RPMI, 5 μL of drug solution, and 10 μL of inoculum. The final concentration of DMSO in the test well was 2.5% for the evaluated comparators and 1.25% for the investigational agents.
(§7) Plates were stacked 3 high, covered with a lid on the top plate, placed into plastic bags, and incubated at 35° C. for approximately 24-48 hr prior to reading. Plates were read when inoculum was confluent in growth wells. Plates were viewed from the bottom using a plate viewer. […] MICs were read where visible growth of the organism was inhibited. MECs were read where the growth shifted to a small, rounded, compact hyphal form as compared to the hyphal growth seen in the growth control well.

C. albicans ATCC 90028 = test: microbe, parasite or virus in culture
Protocol: as §1, §2, §3, §4, §5, §6, §7

C. krusei ATCC 14243 = test: microbe, parasite or virus in culture
Protocol: as §1, §2, §3, §4, §5, §6, §7

[2] = test system: C. parapsilosis ATCC 22019; test: microbe, parasite or virus in culture
Protocol: as §1, §2, §3, §4, §5, §6, §7

A. fumigatus MYA-4609 = test: MEC assay (Example 31); settings: RPMI pH 7.0, 35° C., 24-48 hr
Protocol: as §1, §2, §3, §4, §5, §6, §7

A. fumigatus MX 5944 = test: MEC assay (Example 31); settings: RPMI pH 7.0, 35° C., 24-48 hr
Protocol: as §1, §2, §3, §4, §5, §6, §7

A. fumigatus MYA-3626 = test: MEC assay (Example 31); settings: RPMI pH 7.0, 35° C., 24-48 hr
Protocol: as §1, §2, §3, §4, §5, §6, §7

A. fumigatus ATCC 13073 = test: MEC assay (Example 31); settings: RPMI pH 7.0, 35° C., 24-48 hr
Protocol: as §1, §2, §3, §4, §5, §6, §7

A. flavus MX 5948 = test: MEC assay (Example 31); settings: RPMI pH 7.0, 35° C., 24-48 hr
Protocol: as §1, §2, §3, §4, §5, §6, §7

## CC[C@H](C)C[C@H](C)CCCCCCCCC(=O)N[C@H]1C[C@@H](O)[C@@H](NCCNC(=O)C(Cc2ccccc2)NC(=O)C(CC(C)C)NC(=O)C(CCSC)NC(=O)Nc2ccc(Cl)cc2)NC(=O)[C@@H]2[C@@H](O)CCN2C(=O)[C@H]([C@H](O)CCN)NC(=O)[C@H]([C@H](O)[C@@H](O)c2ccc(O)cc2)NC(=O)[C@@H]2C[C@@H](O)CN2C(=O)[C@H]([C@@H](C)O)NC1=O (single isomer, unassigned) [Compound 13b]
[1]; conc 0.001 μg/mL
  % Neutrophil Migration: 6.2%
[1]; conc 0.01 μg/mL
  % Neutrophil Migration: 26.1%
[1]; conc 0.1 μg/mL
  % Neutrophil Migration: 11.5%
[1]; conc 1 μg/mL
  % Neutrophil Migration: −8.5%
[1]; conc 10 μg/mL
  % Neutrophil Migration: −7.6%
C. glabrata ATCC 90030; C. glabrata ATCC 90030, RPMI pH 7.0, 35° C., 24-48 hr
  MIC: 8 mg/L (≈ 4.88 µM)
C. albicans ATCC 90028; C. albicans ATCC 90028, RPMI pH 7.0, 35° C., 24-48 hr
  MIC: 2 mg/L (≈ 1.22 µM)
C. krusei ATCC 14243; C. krusei ATCC 14243, RPMI pH 7.0, 35° C., 24-48 hr
  MIC: 16 mg/L (≈ 9.77 µM)
[2]; C. parapsilosis ATCC 22019, RPMI pH 7.0, 35° C., 24-48 hr
  MIC: 32 mg/L (≈ 19.5 µM)
A. fumigatus MYA-4609
  MEC: 0.12 µg/mL
A. fumigatus MX 5944
  MEC: 0.25 µg/mL
A. fumigatus MYA-3626
  MEC: 0.25 µg/mL
A. fumigatus ATCC 13073
  MEC: 0.25 µg/mL
A. flavus MX 5948
  MEC: 0.12 µg/mL

## CC[C@H](C)C[C@H](C)CCCCCCCCC(=O)N[C@H]1C[C@@H](O)[C@@H](NCCNC(=O)[C@H](Cc2ccccc2)NC(=O)[C@H](CC(C)C)NC(=O)[C@H](CCSC)NC=O)NC(=O)[C@@H]2[C@@H](O)CCN2C(=O)[C@H]([C@H](O)CCN)NC(=O)[C@H]([C@H](O)[C@@H](O)c2ccc(O)cc2)NC(=O)[C@@H]2C[C@@H](O)CN2C(=O)[C@H]([C@@H](C)O)NC1=O [Compound 2]
[1]; conc 0.001 μg/mL
  % Neutrophil Migration: −5.3%
[1]; conc 0.01 μg/mL
  % Neutrophil Migration: 28.5%
[1]; conc 0.1 μg/mL
  % Neutrophil Migration: 97.5%
[1]; conc 1 μg/mL
  % Neutrophil Migration: 30.6%
[1]; conc 10 μg/mL
  % Neutrophil Migration: −11.0%
C. glabrata ATCC 90030; ATCC 90030, pH 7
  MIC: 4 mg/L (≈ 2.64 µM)
C. albicans ATCC 90028; ATCC 90028, pH 7
  MIC: 2 mg/L (≈ 1.32 µM)
C. krusei ATCC 14243; ATCC 14243, pH 7
  MIC: 8 to 16 mg/L
[2]; ATCC 22019, pH 7
  MIC: 16 mg/L (≈ 10.6 µM)
A. fumigatus MYA-4609
  MEC: 0.12 to 1 µg/mL
A. fumigatus MX 5944
  MEC: 0.12 to 1 µg/mL
A. fumigatus MYA-3626
  MEC: 0.25-1^ μg/mL
A. fumigatus ATCC 13073
  MEC: 0.12 to 2 µg/mL
A. flavus MX 5948
  MEC: 0.06 to 1 µg/mL

## CC[C@H](C)C[C@H](C)CCCCCCCCC(=O)N[C@H]1C[C@@H](O)[C@@H](NCCN)NC(=O)[C@@H]2[C@@H](O)CCN2C(=O)[C@H]([C@H](O)CCNC(=O)CCNC(=O)[C@H](Cc2ccccc2)NC(=O)[C@H](CC(C)C)NC(=O)[C@H](CCSC)NC=O)NC(=O)[C@H]([C@H](O)[C@@H](O)c2ccc(O)cc2)NC(=O)[C@@H]2C[C@@H](O)CN2C(=O)[C@H]([C@@H](C)O)NC1=O [Compound 3]
[1]; conc 0.001 μg/mL
  % Neutrophil Migration: 1.5%
[1]; conc 0.01 μg/mL
  % Neutrophil Migration: 109.3%
[1]; conc 0.1 μg/mL
  % Neutrophil Migration: 66.2%
[1]; conc 1 μg/mL
  % Neutrophil Migration: −9.7%
[1]; conc 10 μg/mL
  % Neutrophil Migration: −11.0%
C. glabrata ATCC 90030; ATCC 90030, pH 7
  MIC: 16 mg/L (≈ 10.1 µM)
C. albicans ATCC 90028; ATCC 90028, pH 7
  MIC: 2 mg/L (≈ 1.26 µM)
C. krusei ATCC 14243; ATCC 14243, pH 7
  MIC: 16 mg/L (≈ 10.1 µM)
[2]; ATCC 22019, pH 7
  MIC: >32 mg/L
A. fumigatus MYA-4609
  MEC: 1 µg/mL
A. fumigatus MX 5944
  MEC: 1 µg/mL
A. fumigatus MYA-3626
  MEC: 1 µg/mL
A. fumigatus ATCC 13073
  MEC: 1 µg/mL
A. flavus MX 5948
  MEC: 1 µg/mL

## CC[C@H](C)C[C@H](C)CCCCCCCCC(=O)N[C@H]1C[C@@H](O)[C@@H](OCCNC(=O)[C@H](Cc2ccccc2)NC(=O)[C@H](CC(C)C)NC(=O)[C@H](CCSC)NC=O)NC(=O)[C@@H]2[C@@H](O)CCN2C(=O)[C@H]([C@H](O)CCN)NC(=O)[C@H]([C@H](O)[C@@H](O)c2ccc(O)cc2)NC(=O)[C@@H]2C[C@@H](O)CN2C(=O)[C@H]([C@@H](C)O)NC1=O [Compound 12]
C. glabrata ATCC 90030; ATCC 90030, pH 7
  MIC: 4 to 8 mg/L
C. albicans ATCC 90028; ATCC 90028, pH 7
  MIC: 1 to 2 mg/L
C. krusei ATCC 14243; ATCC 14243, pH 7
  MIC: 8 to 16 mg/L
[2]; ATCC 22019, pH 7
  MIC: 8 to 16 mg/L
A. fumigatus MYA-4609
  MEC: 0.06 to 0.12 µg/mL
A. fumigatus MX 5944
  MEC: 0.12 to 0.25 µg/mL
A. fumigatus MYA-3626
  MEC: 0.06 to 0.25 µg/mL
A. fumigatus ATCC 13073
  MEC: ≦0.03-0.12 μg/mL
A. flavus MX 5948
  MEC: ≦0.03-0.12 μg/mL

## C[C@@H](c1ncncc1F)[C@](O)(Cn1cncn1)c1ccc(F)cc1F [voriconazole, reference compound]
C. glabrata ATCC 90030; Nakaseomyces glabratus, ATCC90030, C. glabrata ATCC 90030, RPMI pH 7.0, 35° C., 24-48 hr, read-out: MIC
  MIC: 0.12 to 0.25 mg/L (≈ 0.344 to 0.716 µM)
C. albicans ATCC 90028; Candida albicans, ATCC90028, C. albicans ATCC 90028, RPMI pH 7.0, 35° C., 24-48 hr, read-out: MIC
  MIC: 0.06 to 0.5 mg/L (≈ 0.172 to 1.43 µM)
C. krusei ATCC 14243; Pichia kudriavzevii, ATCC14243, C. krusei ATCC 14243, RPMI pH 7.0, 35° C., 24-48 hr, read-out: MIC
  MIC: 0.25 to 1 mg/L (≈ 0.716 to 2.86 µM)
[2]; Lodderomyces parapsilosis, ATCC22019, C. parapsilosis ATCC 22019, RPMI pH 7.0, 35° C., 24-48 hr, read-out: MIC
  MIC: 0.03 to 0.06 mg/L (≈ 0.0859 to 0.172 µM)
A. fumigatus MYA-4609
  MEC: 0.25 to 0.5 µg/mL
A. fumigatus MX 5944
  MEC: 0.12 to 0.25 µg/mL
A. fumigatus MYA-3626
  MEC: 0.12 to 0.5 µg/mL
A. fumigatus ATCC 13073
  MEC: 0.012-0.5^ μg/mL
A. flavus MX 5948
  MEC: 0.25 to 2 µg/mL
